Reference: article PMC11354698, “Functional Characterization of an Odorant Receptor Expressed in Newly Hatched Larvae of Fall Armyworm Spodoptera frugiperda” (Insects, 2024)

Each molecule was assayed against T1, SfruOR40/Orco (SfruOR40 co-expressed with SfruOrco) (Spodoptera frugiperda, UniProt A0A9R0D2T2) (assay: two-electrode voltage clamp, Xenopus oocytes). Details: agonist, 10^-4 M odorant, -80 mV, Ringer's buffer pH 7.6, 0.1% DMSO, n = 7.
T1 construct: gene LOC118267896; full-length ORF of SfruOR40 (395 residues); with Odorant receptor coreceptor
T1 sequence (A0A9R0D2T2 1-395): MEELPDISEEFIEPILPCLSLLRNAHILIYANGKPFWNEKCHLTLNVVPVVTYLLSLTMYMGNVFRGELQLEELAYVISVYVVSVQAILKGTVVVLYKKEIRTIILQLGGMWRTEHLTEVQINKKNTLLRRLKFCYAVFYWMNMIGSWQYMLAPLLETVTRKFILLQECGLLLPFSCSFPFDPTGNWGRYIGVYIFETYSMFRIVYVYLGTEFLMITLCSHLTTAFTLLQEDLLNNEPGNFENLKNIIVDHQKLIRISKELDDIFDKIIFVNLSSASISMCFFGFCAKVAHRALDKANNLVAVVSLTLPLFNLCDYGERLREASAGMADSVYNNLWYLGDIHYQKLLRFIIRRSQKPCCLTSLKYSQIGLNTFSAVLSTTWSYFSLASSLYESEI
T1 sequence (A0A9F1UC78 1-473 partner): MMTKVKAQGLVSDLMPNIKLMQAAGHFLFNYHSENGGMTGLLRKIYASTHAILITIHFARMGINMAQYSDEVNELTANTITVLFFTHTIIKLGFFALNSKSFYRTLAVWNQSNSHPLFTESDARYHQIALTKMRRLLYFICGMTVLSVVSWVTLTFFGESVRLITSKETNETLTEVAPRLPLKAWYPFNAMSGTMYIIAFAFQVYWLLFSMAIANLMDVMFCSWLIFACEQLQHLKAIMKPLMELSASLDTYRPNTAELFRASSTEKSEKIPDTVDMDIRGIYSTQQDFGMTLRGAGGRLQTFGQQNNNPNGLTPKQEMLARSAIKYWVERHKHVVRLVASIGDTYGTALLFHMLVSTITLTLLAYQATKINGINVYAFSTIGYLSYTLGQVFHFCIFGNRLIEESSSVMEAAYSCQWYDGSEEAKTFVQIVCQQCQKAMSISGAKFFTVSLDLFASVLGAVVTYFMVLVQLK
Assay type: cell-based

| mean current amplitude at 10^-4 M [nA] | Compound |
| --- | --- |
| 111 | C=C1CC/C=C(\C)CC[C@@H]2[C@@H]1CC2(C)C [(−)-trans-Caryophyllene] |
| 90 | C=C1CC[C@H]2O[C@]2(C)CC[C@@H]2[C@@H]1CC2(C)C [(−)-trans-Caryophyllene oxide] |
| 206 | C/C1=C\CC/C(C)=C/CC(C)(C)/C=C/C1 [α-Humulene] |
